From US9238797B2, “Method for production of pluripotent stem cell” (TAKARA BIO INC., priority 2008, dated 2016)

Legend:
[1] = tested on: human adult skin fibroblast; assay: iPS cell colony induction, DHCP and GM (Example 29); assay type: cell-based; settings: 10 μM, 2 days; 26th day of culture; N=2
Experimental: In induction culturing of a pluripotent stem cell, substance treatment with a compound DHCP produced by heating a uronic acid compound derived from an animal and a plant (International Publication No. 98/13328 pamphlet), and GM in which glutathione is added to DHCP (International Publication No. 98/39291 pamphlet) was carried out, and influence on an induction efficiency was studied.
According to the same manner as that of Example 4-(2), gene transfer was carried out (day 0 of culturing), provided that each 1 mL of the virus solution was added to each well, by diluting 10-fold a solution obtained by three kinds of vectors at an equal amount, with 10F-DMEM.
(§1) On the sixth day of culture, according to the same manner as that of Example 5-(4), the gene-introduced cell was seeded on a feeder cell, and culturing was continued.
(§2) In addition, in a control, the substance was not added. After culturing for 2 days, the medium was exchanged with a medium for ES cells, and culturing was continued to the 28th day of culture.
(§3) In addition, the number in the Table indicates an average value of N=2.

[2] = tested on: human adult skin fibroblast; assay: iPS cell colony induction, cell cycle arresting agent treatment (Example 3); assay type: cell-based; settings: 2 days, 22nd day of culture
Experimental: According to the same manner as that of Example 1-(2), gene transfer was carried out (day 0 of culturing), provided that a plate was washed with PBS containing 1.5% human serum albumin, and centrifugation after cell seeding was not carried out. In addition, gene transfer was carried out in a combination of a retrovirus vector DON5-am-OCT4-IR-SOX2, DON5-am-LIN28-IR-NANOG, or DON5-am-KLF4.
On the seventh day of culture, according to the same manner as that of Example 1-(4), the gene-introduced cell was seeded on a feeder cell, and culturing was continued.
In addition, the agent was not added to a control. After culturing for 2 days, the medium was exchanged with a medium for ES cells, and culturing was continued until the 22nd day of culture.

[3] = tested on: human adult skin fibroblast; assay: iPS cell colony induction, methylation inhibitor treatment (Example 1); settings: 5-aza-2′-deoxycytidine 1 μM for 2 days in medium for ES cells, 28th day of culture
Experimental: Each 700 μL of the virus solution prepared in Preparation Example 2 was added to each well of the Retronectin-immobilized culture plate prepared in (1) in a combination of Table 3, respectively, and this was centrifuged at 32° C. and 2,000×g for 2 hours.
Thereafter, the supernatant was removed from each well, washed with PBS once, and each 2 mL of human adult skin fibroblast (manufactured by Lonza) suspended in 10F-DMEM to 5×10^4 cells/mL was seeded on each well. After centrifugation at 32° C. and 500×g for 10 minutes, culturing was initiated in a CO2 incubator at 37° C. (0 day of culture).
Gene transfer for the second time was carried out on the first day of culture. Each 700 μL of virus solutions prepared by Preparation Example 2 were mixed in a combination of Table 3, and polybrene (hexadimethrine.bromide; manufactured by Aldrich) was added to a final concentration of 8 μg/mL to prepare a retrovirus vector mixed solution. The supernatant was removed from a culture plate which had been cultured in (2), and this retrovirus vector mixed solution was added. After culturing in a CO2 incubator at 37° C. for 4 hours, 2 mL of 10F-DMEM was added. After further culturing for 2 days, the supernatant was removed, 2 mL of 10F-DMEM was added, and culturing was continued.
The gene-introduced cell on the seventh day of culture made in (3) was recovered, and suspended in 10F-DMEM to 5×10^4 cells/mL. 10 mL of this suspension was seeded on the feeder cell, and culturing was continued.
On the eighth day of culture (after culturing for 1 day from seeding on the feeder cell), the supernatant was removed, and 10 mL of DMEM not containing serum (0F-DMEM: obtained by removing bovine fetal serum from 10F-DMEM) was added under Protein starvation treatment conditions. […]
The number of a pluripotent stem cell (iPS cell) under each condition of protein starvation of treatment or methylation inhibitor treatment under each of conditions A, B and C was counted on the 28th day of culture.

[4] = tested on: human adult skin fibroblast; assay: iPS cell colony induction, cell cycle arresting agent-3, NU6140 (Example 28); assay type: cell-based; settings: 2 days, 28th day of culture, N=2
Experimental: In induction culturing of a pluripotent stem cell, substance treatment with […] (manufactured by ALEXIS BIOCHEMICALS) which is one of Cell cycle arresting agents was carried out, and influence on an induction efficiency was studied.
According to the same manner as that of Example 1-(1), immobilization of Retronectin on a culture plate was carried out, provided that a non-treatment 12-well culture plate (manufactured by Becton, Dickinson and Company) was used, and each 1 mL of a Retronectin solution was added to each well.
According to the same manner as that of Example 4-(2), gene transfer was carried out (day 0 of culturing), provided that each 1 mL of the virus solution was added to each well, by diluting 100-fold a solution obtained by three kinds of vectors at an equal amount, with 10F-DMEM.
as §1, §2, §3

[5] = tested on: human adult skin fibroblast; assay: iPS cell colony induction, cell cycle arresting agent-2, Purvalanol A with or without Y27632 (Example 27); assay type: cell-based; settings: 26th day of culture, N=2
Experimental: Regarding Purvalanol A being a Cell cycle arresting agent, for which the effect of promoting induction of a pluripotent stem cell was confirmed in Example 3, extension of the substance treatment term thereof and a combination use thereof with Y-27632 [(R) (+)-trans-4-(1-aminoethyl)-N-(4-pyridyl)cyclohexanecarboxyamide dihydrochloride] which is one of substances suppressing cell death were studied.
According to the same manner as that of Example 3-(2), gene transfer was carried out (day 0 of culturing), provided that the virus solution was added to each well by each 2 mL, by diluting 10-fold a solution obtained by mixing three kinds of vectors at an equal amount, with 10F-DMEM.
as §1
After completion of a substance treatment term, the medium was exchanged with a medium for ES cells, and culturing was continued until the 26th day of culture. […] Regarding the condition under which substance treatment for 4 days to 6 days was carried out, the medium was exchanged at two days interval also during a substance treatment term, and the substance was added at the same concentration every time.
as §3

O=C1C=CC(O)C1O (centres unmarked) [DHCP, 4,5-dihydroxy-2-cyclopentene-1-one]
Number of iPS cell colonies [1]: 23.5

NC(=O)NO [Hydroxyurea, hydroxyurea]
Number of iPS cell colonies ([2]; 10 μM): 26 | Number of iPS cell colonies ([2]; 100 μM): 13

Nc1ncn([C@H]2C[C@H](O)[C@@H](CO)O2)c(=O)n1 [Methylation inhibitor, 5-aza-2′-deoxycytidine]
Number of iPS cell colonies ([3]; retrovirus combination Condition A): 11 | Number of iPS cell colonies ([3]; retrovirus combination Condition B): 25 | Number of iPS cell colonies ([3]; retrovirus combination Condition C): 8

CCN(CC)C(=O)c1ccc(Nc2nc(OCC3CCCCC3)c3[nH]cnc3n2)cc1 [NU6140]
Number of iPS cell colonies ([4]; 0.1 μM): 22.5 | Number of iPS cell colonies ([4]; 1 μM): 28.0

CC(C)[C@H](CO)Nc1nc(Nc2cccc(Cl)c2)c2ncn(C(C)C)c2n1 [Purvalanol A]
Number of iPS cell colonies ([5]; Condition A: 2 μM Purvalanol A, 2 days): 26.0 | Number of iPS cell colonies ([5]; Condition B: 2 μM Purvalanol A, 4 days): 25.5 | Number of iPS cell colonies ([5]; Condition C: 2 μM Purvalanol A, 6 days): 18.5 | Number of iPS cell colonies ([2]; 0.1 μM): 28 | Number of iPS cell colonies ([2]; 0.5 μM): 19 | Number of iPS cell colonies ([2]; 2 μM): 19
